Measurements taken from patent US10947271B2, “Antibacterial agents” (THE UNIVERSITY OF QUEENSLAND, priority 2014, dated 2021).

Legend:
Format in all cases: cell-based
Settings in all cases: 24 h incubation, visual reading
[1] = test system: Staphylococcus aureus MRSA ATCC 43300; test: MIC assay, S. aureus MRSA ATCC 43300
In short: (§1)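 MHB broth microdilution, twofold series, compounds 8–0.003 μg/ml; mid-log inoculum 5×10e5 CFU/mL; 37° C, 24 h; MIC read visually as lowest concentration without growth.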

[2] = test system: Streptococcus pneumoniae MDR ATCC 700677; test: MIC assay, S. pneumoniae MDR ATCC 700677
In short: as §1

[3] = test system: Enterococcus faecium MDR Van A ATCC 51559; test: MIC assay, E. faecium MDR Van A ATCC 51559
In short: as §1

SMILES: CNC(CC(C)C)C(=O)NC1C(=O)NC(CC(N)=O)C(=O)NC2C(=O)NC3C(=O)NC(C(=O)NC(C(=O)NCCCCC(NC(=O)C(CCCCN)NC(=O)C(CCCCN)NC(=O)C(CCCCN)NC(=O)c4ccc(Oc5ccccc5)cc4)C(=O)O)c4cc(O)cc(O)c4-c4cc3ccc4O)C(O)c3ccc(c(Cl)c3)Oc3cc2cc(c3OC2OC(CO)C(O)C(O)C2OC2CC(C)(N)C(O)C(C)O2)Oc2ccc(cc2Cl)C1O (stereo not drawn) [MCC_000194]
- Minimum Inhibitory Concentration (MIC) Staph. aureus ATCC43300 [1]: xxx (xxx = 0.1-<1)
- Minimum Inhibitory Concentration (MIC) S. pneumoniae ATCC 700677 [2]: xxx (xxx = 0.1-<1)
- Minimum Inhibitory Concentration (MIC) E. faecium ATCC51559 [3]: x (x = >4)

SMILES: CCCCCCCCCC(=O)N[C@@H](CCCCN1CCOCC1)C(=O)N[C@@H](CCCCNC(=O)[C@H]1NC(=O)[C@H]2NC(=O)[C@H](NC(=O)[C@@H]3NC(=O)[C@H](CC(N)=O)NC(=O)[C@H](NC(=O)[C@@H](CC(C)C)NC)[C@H](O)c4ccc(c(Cl)c4)Oc4cc3cc(c4O[C@@H]3O[C@H](CO)[C@@H](O)[C@H](O)[C@H]3O[C@H]3C[C@](C)(N)[C@H](O)[C@H](C)O3)Oc3ccc(cc3Cl)[C@H]2O)c2ccc(O)c(c2)-c2c(O)cc(O)cc21)C(=O)O [MCC_007379]
- Minimum Inhibitory Concentration (MIC) Staph. aureus ATCC43300 [1]: xx (xx = 1-4)
- Minimum Inhibitory Concentration (MIC) S. pneumoniae ATCC 700677 [2]: xx (xx = 1-4)
- Minimum Inhibitory Concentration (MIC) E. faecium ATCC51559 [3]: x (x = >4)

SMILES: CNC(=O)[C@H](CCCCNC(=O)[C@H]1NC(=O)[C@H]2NC(=O)[C@H](NC(=O)[C@@H]3NC(=O)[C@H](CC(N)=O)NC(=O)[C@H](NC(=O)[C@@H](CC(C)C)NC)[C@H](O)c4ccc(c(Cl)c4)Oc4cc3cc(c4O[C@@H]3O[C@H](CO)[C@@H](O)[C@H](O)[C@H]3O[C@H]3C[C@](C)(N)[C@H](O)[C@H](C)O3)Oc3ccc(cc3Cl)[C@H]2O)c2ccc(O)c(c2)-c2c(O)cc(O)cc21)NC(=O)[C@H](CCCCN)NC(=O)[C@H](CCCCN)NC(=O)CNC(=O)c1ccc(Oc2ccccc2)cc1 [MCC_000647]
- Minimum Inhibitory Concentration (MIC) Staph. aureus ATCC43300 [1]: xxx (xxx = 0.1-<1)
- Minimum Inhibitory Concentration (MIC) S. pneumoniae ATCC 700677 [2]: xxx (xxx = 0.1-<1)
- Minimum Inhibitory Concentration (MIC) E. faecium ATCC51559 [3]: x (x = >4)

SMILES: CCCCCCCCCCCCC(=O)N[C@@H](CCCCN)C(=O)N[C@@H](CCCCN)C(=O)N[C@@H](CCCCNC(=O)[C@H]1NC(=O)[C@H]2NC(=O)[C@H](NC(=O)[C@@H]3NC(=O)[C@H](CC(N)=O)NC(=O)[C@H](NC(=O)[C@@H](CC(C)C)NC)[C@H](O)c4ccc(c(Cl)c4)Oc4cc3cc(c4O[C@@H]3O[C@H](CO)[C@@H](O)[C@H](O)[C@H]3O[C@H]3C[C@](C)(N)[C@H](O)[C@H](C)O3)Oc3ccc(cc3Cl)[C@H]2O)c2ccc(O)c(c2)-c2c(O)cc(O)cc21)C(=O)O [MCC_000349]
- Minimum Inhibitory Concentration (MIC) Staph. aureus ATCC43300 [1]: xxxxx (xxxxx = <0.01)
- Minimum Inhibitory Concentration (MIC) S. pneumoniae ATCC 700677 [2]: xxxxx (xxxxx = <0.01)
- Minimum Inhibitory Concentration (MIC) E. faecium ATCC51559 [3]: xxx (xxx = 0.1-<1)

SMILES: CCCCCCCCCC(=O)N[C@@H](CCCNC(=N)N)C(=O)N[C@@H](CCCNC(=N)N)C(=O)N[C@@H](CCCCNC(=O)[C@H]1NC(=O)[C@H]2NC(=O)[C@H](NC(=O)[C@@H]3NC(=O)[C@H](CC(N)=O)NC(=O)[C@H](NC(=O)[C@@H](CC(C)C)NC)[C@H](O)c4ccc(c(Cl)c4)Oc4cc3cc(c4O[C@@H]3O[C@H](CO)[C@@H](O)[C@H](O)[C@H]3O[C@H]3C[C@](C)(N)[C@H](O)[C@H](C)O3)Oc3ccc(cc3Cl)[C@H]2O)c2ccc(O)c(c2)-c2c(O)cc(O)cc21)C(=O)O [MCC_005507]
- Minimum Inhibitory Concentration (MIC) Staph. aureus ATCC43300 [1]: xxxx (xxxx = 0.01-<0.1)
- Minimum Inhibitory Concentration (MIC) S. pneumoniae ATCC 700677 [2]: xxxx (xxxx = 0.01-<0.1)
- Minimum Inhibitory Concentration (MIC) E. faecium ATCC51559 [3]: x (x = >4)

SMILES: CNC(CC(C)C)C(=O)NC1C(=O)NC(CC(N)=O)C(=O)NC2C(=O)NC3C(=O)NC(C(=O)NC(C(=O)NCCCCC(NC(=O)C(CCCCN)NC(=O)C(CCCCN)NC(=O)CNC(=O)c4ccc(Oc5ccccc5)cc4)C(=O)O)c4cc(O)cc(O)c4-c4cc3ccc4O)C(O)c3ccc(c(Cl)c3)Oc3cc2cc(c3OC2OC(CO)C(O)C(O)C2OC2CC(C)(N)C(O)C(C)O2)Oc2ccc(cc2Cl)C1O (stereo not drawn) [MCC_000381]
- Minimum Inhibitory Concentration (MIC) Staph. aureus ATCC43300 [1]: xxx (xxx = 0.1-<1)
- Minimum Inhibitory Concentration (MIC) S. pneumoniae ATCC 700677 [2]: xx (xx = 1-4)
- Minimum Inhibitory Concentration (MIC) E. faecium ATCC51559 [3]: x (x = >4)

SMILES: CCCCCCCCCCC(=O)N[C@@H](CCCCN)C(=O)N[C@@H](CCCCN)C(=O)N[C@@H](CCCCNC(=O)CNC(=O)[C@H]1NC(=O)[C@H]2NC(=O)[C@H](NC(=O)[C@@H]3NC(=O)[C@H](CC(N)=O)NC(=O)[C@H](NC(=O)[C@@H](CC(C)C)NC)[C@H](O)c4ccc(c(Cl)c4)Oc4cc3cc(c4O[C@@H]3O[C@H](CO)[C@@H](O)[C@H](O)[C@H]3O[C@H]3C[C@](C)(N)[C@H](O)[C@H](C)O3)Oc3ccc(cc3Cl)[C@H]2O)c2ccc(O)c(c2)-c2c(O)cc(O)cc21)C(=O)O [MCC_000225]
- Minimum Inhibitory Concentration (MIC) Staph. aureus ATCC43300 [1]: xxx (xxx = 0.1-<1)
- Minimum Inhibitory Concentration (MIC) S. pneumoniae ATCC 700677 [2]: xxx (xxx = 0.1-<1)
- Minimum Inhibitory Concentration (MIC) E. faecium ATCC51559 [3]: x (x = >4)

SMILES: CCCCCCCCCCCCC(=O)N[C@@H](CCCCN)C(=O)N[C@@H](CCCCN)C(=O)N[C@@H](CCCCN)C(=O)N[C@@H](CCCCNC(=O)[C@H]1NC(=O)[C@H]2NC(=O)[C@H](NC(=O)[C@@H]3NC(=O)[C@H](CC(N)=O)NC(=O)[C@H](NC(=O)[C@@H](CC(C)C)NC)[C@H](O)c4ccc(c(Cl)c4)Oc4cc3cc(c4O[C@@H]3O[C@H](CO)[C@@H](O)[C@H](O)[C@H]3O[C@H]3C[C@](C)(N)[C@H](O)[C@H](C)O3)Oc3ccc(cc3Cl)[C@H]2O)c2ccc(O)c(c2)-c2c(O)cc(O)cc21)C(=O)O [MCC_000350]
- Minimum Inhibitory Concentration (MIC) Staph. aureus ATCC43300 [1]: xxxxx (xxxxx = <0.01)
- Minimum Inhibitory Concentration (MIC) S. pneumoniae ATCC 700677 [2]: xxxxx (xxxxx = <0.01)
- Minimum Inhibitory Concentration (MIC) E. faecium ATCC51559 [3]: xxx (xxx = 0.1-<1)

SMILES: CNC(=O)C(CCCCNC(=O)C1NC(=O)C2NC(=O)C(NC(=O)C3NC(=O)C(CC(N)=O)NC(=O)C(NC(=O)C(CC(C)C)NC)C(O)c4ccc(c(Cl)c4)Oc4cc3cc(c4OC3OC(CO)C(O)C(O)C3OC3CC(C)(N)C(O)C(C)O3)Oc3ccc(cc3Cl)C2O)c2ccc(O)c(c2)-c2c(O)cc(O)cc21)NC(=O)C(CCCCN)NC(=O)C(CCCCN)NC(=O)CCCCCCCCCCCc1ccccc1 (stereo not drawn) [MCC_000511]
- Minimum Inhibitory Concentration (MIC) Staph. aureus ATCC43300 [1]: xxxxx (xxxxx = <0.01)
- Minimum Inhibitory Concentration (MIC) S. pneumoniae ATCC 700677 [2]: xxxxx (xxxxx = <0.01)
- Minimum Inhibitory Concentration (MIC) E. faecium ATCC51559 [3]: xxx (xxx = 0.1-<1)

SMILES: CNC(=O)[C@H](CCCCNC(=O)[C@H]1NC(=O)[C@H]2NC(=O)[C@H](NC(=O)[C@@H]3NC(=O)[C@H](CC(N)=O)NC(=O)[C@H](NC(=O)[C@@H](CC(C)C)NC)[C@H](O)c4ccc(c(Cl)c4)Oc4cc3cc(c4O[C@@H]3O[C@H](CO)[C@@H](O)[C@H](O)[C@H]3O)Oc3ccc(cc3Cl)[C@H]2O)c2ccc(O)c(c2)-c2c(O)cc(O)cc21)NC(=O)[C@H](CCCCN)NC(=O)[C@H](CCCCN)NC(=O)[C@H](CCCCNC(=O)Cc1ccc(-c2ccccc2)cc1)NC(=O)Cc1ccc(-c2ccccc2)cc1 [MCC_000653]
- Minimum Inhibitory Concentration (MIC) Staph. aureus ATCC43300 [1]: xxxx (xxxx = 0.01-<0.1)
- Minimum Inhibitory Concentration (MIC) S. pneumoniae ATCC 700677 [2]: xxxx (xxxx = 0.01-<0.1)
- Minimum Inhibitory Concentration (MIC) E. faecium ATCC51559 [3]: xx (xx = 1-4)

SMILES: CCCCCCCCCCCCCC(=O)N[C@@H](CCCCN)C(=O)N[C@@H](CCCCN)C(=O)N[C@@H](CCCCNC(=O)[C@H]1NC(=O)[C@H]2NC(=O)[C@H](NC(=O)[C@@H]3NC(=O)[C@H](CC(N)=O)NC(=O)[C@H](NC(=O)[C@@H](CC(C)C)NC)[C@H](O)c4ccc(c(Cl)c4)Oc4cc3cc(c4O[C@@H]3O[C@H](CO)[C@@H](O)[C@H](O)[C@H]3O[C@H]3C[C@](C)(N)[C@H](O)[C@H](C)O3)Oc3ccc(cc3Cl)[C@H]2O)c2ccc(O)c(c2)-c2c(O)cc(O)cc21)C(=O)NC [MCC_000224]
- Minimum Inhibitory Concentration (MIC) Staph. aureus ATCC43300 [1]: xxxxx (xxxxx = <0.01)
- Minimum Inhibitory Concentration (MIC) S. pneumoniae ATCC 700677 [2]: xxxxx (xxxxx = <0.01)
- Minimum Inhibitory Concentration (MIC) E. faecium ATCC51559 [3]: xxx (xxx = 0.1-<1)

SMILES: CCCCCCCCCN1CCC(C(=O)N[C@@H](CCCCN)C(=O)N[C@@H](CCCCNC(=O)[C@H]2NC(=O)[C@H]3NC(=O)[C@H](NC(=O)[C@@H]4NC(=O)[C@H](CC(N)=O)NC(=O)[C@H](NC(=O)[C@@H](CC(C)C)NC)[C@H](O)c5ccc(c(Cl)c5)Oc5cc4cc(c5O[C@@H]4O[C@H](CO)[C@@H](O)[C@H](O)[C@H]4O[C@H]4C[C@](C)(N)[C@H](O)[C@H](C)O4)Oc4ccc(cc4Cl)[C@H]3O)c3ccc(O)c(c3)-c3c(O)cc(O)cc32)C(N)=O)CC1 [MCC_004825]
- Minimum Inhibitory Concentration (MIC) Staph. aureus ATCC43300 [1]: xxxx (xxxx = 0.01-<0.1)
- Minimum Inhibitory Concentration (MIC) S. pneumoniae ATCC 700677 [2]: xxx (xxx = 0.1-<1)
- Minimum Inhibitory Concentration (MIC) E. faecium ATCC51559 [3]: xxx (xxx = 0.1-<1)

SMILES: CCCCCCC(CCCC)C(=O)NC(CCCCN)C(=O)NC(CCCCN)C(=O)NC(CCCCNC(=O)C1NC(=O)C2NC(=O)C(NC(=O)C3NC(=O)C(CC(N)=O)NC(=O)C(NC(=O)C(CC(C)C)NC)C(O)c4ccc(c(Cl)c4)Oc4cc3cc(c4OC3OC(CO)C(O)C(O)C3OC3CC(C)(N)C(O)C(C)O3)Oc3ccc(cc3Cl)C2O)c2ccc(O)c(c2)-c2c(O)cc(O)cc21)C(=O)NC (stereo not drawn) [MCC_000496]
- Minimum Inhibitory Concentration (MIC) Staph. aureus ATCC43300 [1]: xxxx (xxxx = 0.01-<0.1)
- Minimum Inhibitory Concentration (MIC) S. pneumoniae ATCC 700677 [2]: xxx (xxx = 0.1-<1)
- Minimum Inhibitory Concentration (MIC) E. faecium ATCC51559 [3]: x (x = >4)

SMILES: CNC(=O)C(CCCCNC(=O)C1NC(=O)C2NC(=O)C(NC(=O)C3NC(=O)C(CC(N)=O)NC(=O)C(NC(=O)C(CC(C)C)NC)C(O)c4ccc(c(Cl)c4)Oc4cc3cc(c4OC3OC(CO)C(O)C(O)C3OC3CC(C)(N)C(O)C(C)O3)Oc3ccc(cc3Cl)C2O)c2ccc(O)c(c2)-c2c(O)cc(O)cc21)NC(=O)C(CCCCN)NC(=O)C(CCCCN)NC(=O)c1ccc(Oc2ccc(Cl)cc2)cc1 (stereo not drawn) [MCC_000516]
- Minimum Inhibitory Concentration (MIC) Staph. aureus ATCC43300 [1]: xxxxxx
- Minimum Inhibitory Concentration (MIC) S. pneumoniae ATCC 700677 [2]: xxxxx (xxxxx = <0.01)
- Minimum Inhibitory Concentration (MIC) E. faecium ATCC51559 [3]: x (x = >4)
